What all share (format): cell-based
In experiment [1] the test system is Capan1 pancreatic cancer cell line. In words: SRB analysis 1. The following applies: Homo sapiens, % compared to the control group, read-out: degree of growth inhibition. The protocol: (§1) Pancreatic cancer (MIA PaCa2, Capan1, Capan2, BxPC-3, SNU-213 or SNU-324) cell lines (100 μl) were seeded into 96-well microtiter plates at densities ranging from 7,500 to 10,000 cells/well depending on the doubling time of each cell line. After adding Trimetazidine (KN713) 1 mM, omeprazole (KN510) 100 or 200 μM, trimetazidine 1 mM+omeprazole 100 μM, trimetazidine 1 mM+omeprazole 200 μM, respectively, to each well by 100 μl each, and plate was incubated in a CO2 incubator, and cold TCA was added to terminate the assay. 50 μl of cold 50% (w/v) TCA (final concentration: 10% TCA) was gently added to fix the cells and incubated at 4° C. for 60 minutes. The supernatant was discarded and the plate was washed 5 times with tap water and then air dried. A solution of 0.4% (w/v) Sulforhodamine B (100 μl) in 1% acetic acid was added to each well, and the plate was left at room temperature for 10 minutes. After staining, the plates were air dried after washing 5 times with 1% acetic acid to remove unbound dye. The bound dye was then solubilized with 10 mM trizma base and the absorbance was recorded at 515 nm using an automated plate reader.

For experiment [2], the system named is SNU-324 pancreatic cancer cell line. In words: SRB analysis 1. The following applies: % compared to the control group, read-out: degree of growth inhibition. The method, then:
as §1

Experiment [3] relates to Capan2 pancreatic cancer cell line. In words: SRB analysis 1. As to conditions: Homo sapiens, % compared to the control group, read-out: degree of growth inhibition. The protocol: as §1
Experiment [4] deals with SNU-213 pancreatic cancer cell line. In words: SRB analysis 1. As to conditions: % compared to the control group, read-out: degree of growth inhibition. The protocol:
as §1

Experiment [5] relates to MIA PaCa2 pancreatic cancer cell line. Nature of the experiment: SRB analysis 1. As to conditions: Homo sapiens, % compared to the control group, read-out: degree of growth inhibition. The method, then: as §1
Experiment [6] deals with BxPC-3 pancreatic cancer cell line. In words: SRB analysis 1. As to conditions: Homo sapiens, % compared to the control group, read-out: degree of growth inhibition. The protocol:
as §1

The subject of experiment [7] is AsPC-1 pancreatic cancer cells. In words: SRB analysis 2. The following applies: 48 hours. The method, then:
(§2) The SRB assay was performed as follows: each cell line (100 μl) was seeded into 96-well microtiter plates at densities ranging from 5,000 to 20,000 cells/well depending on the doubling time of each cell line. After cell seeding, microtiter plates were incubated for 24 h before addition of experimental drug. Drugs were prepared at the indicated concentrations and 100 μl was added to each well; The plates were then incubated in a CO2 incubator. Then, cold TCA was added to terminate the assay. Cells were fixed in situ by gentle addition of 50 μl of cold 50% (w/v) TCA (final concentration: 10% TCA) and incubated at 4° C. for 60 min. The supernatant was discarded and the plate was washed 5 times with tap water and then air dried. A solution (100 μl) of 0.4% (w/v) SRB (Sulforhodamine B) in 1% acetic acid was added to each well, and the plate was left at room temperature for 10 minutes. After staining, the plates were air dried after washing 5 times with 1% acetic acid to remove unbound dye. The bound dye was then solubilized with 10 mM trizma base and the absorbance was recorded at 515 nm using an automated plate reader.

In experiment [8] the test system is SU.86.86 pancreatic cancer cells. Nature of the experiment: SRB analysis 2. As to conditions: 48 hours. The protocol:
as §2

For experiment [9], the system named is SNU-324 pancreatic cancer cells. In words: SRB analysis 2. The following applies: SNU324, 48 hours. The protocol:
as §2

In experiment [10] the test system is BxPC-3 pancreatic cancer cells. Nature of the experiment: SRB analysis 2. The following applies: 48 hours. The protocol: as §2
For experiment [11], the system named is MIA PaCa2 pancreatic cancer cells. In words: SRB analysis 2. The following applies: MIA PaCa-2, 48 hours. The protocol:
as §2

For experiment [12], the system named is SNU-213 pancreatic cancer cells. In words: SRB analysis 2. The following applies: SNU213, 48 hours. The method, then:
as §2

Experiment [13] concerns U87MG glioblastoma (GBM) cell line. In words: SRB analysis 3. As to conditions: 48 hours. An outline of the steps: (§3)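 Glioblastoma cells were seeded at 5,000–40,000/well and exposed for 48 h at 37 °C to a triple combination of CAC inhibitor, trimetazidine and another anticancer drug. Growth was read by TCA fixation, 0.4% SRB staining and absorbance at 515 nm after solubilisation in 10 mM Trizma, n=3.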

For experiment [14], the system named is T87G glioblastoma (GBM) cell line. Nature of the experiment: SRB analysis 3. As to conditions: 48 hours. Put shortly:
as §3

Several values for one entry are separate records, joined by “and”; a condition that tells them apart may be missing. Equal values may be shown once.

As usually defined, the inhibition is the change of the read-out against control, counted positive when it falls. For `COc1ccc2[nH]c([S+]([O-])Cc3ncc(C)c(OC)c3C)nc2c1` (stereo not shown) [KN510, omeprazole], the cell growth (% of control) at 100 µM in experiment [1] (CAPAN-1, KN510 100 μM) came to 97.6%. The cell growth (% of control) at 200 µM in experiment [1] (CAPAN-1, KN510 200 μM) was found to be 111%. Moreover, the inhibition at 100 µM in experiment [2] (KN510 100 μM) was 68.2%; in experiment [3] (Capan-2, KN510 100 μM), 1.3%; in [4] (KN510 100 μM) it was 81%; in experiment [5] (MIA PaCa-2, KN510 100 μM), 70.8%; in experiment [6] (BX-PC3, KN510 100 μM), 79.5%. For the same molecule, the inhibition at 200 µM is 89.8% in experiment [2] (KN510 200 μM); 49.5% in experiment [3] (Capan-2, KN510 200 μM); 89.6% in experiment [4] (KN510 200 μM); 92.8% in [5] (MIA PaCa-2, KN510 200 μM); 96.9% in [6] (BX-PC3, KN510 200 μM). Moreover, the “degree of cell growth based on the control (100%)” value (shortened to “degree … (100%)”) in experiment [7] (KN510 100 μM) amounted to 77.31%; in [7] (KN510 200 μM) it was 28.00%; in [8] (KN510 100 μM) it was 78.12%; in experiment [8] (KN510 200 μM) it was 53.01%; in experiment [9] (KN510 100 μM), 43.26%; in experiment [9] (KN510 200 μM) it was 19.68%. In addition, the “degree … (100%)” value in experiment [10] (KN510 100 μM) stood at 40.19%; in [10] (KN510 200 μM), 17.37%; in [11] (KN510 100 μM) it was 86.46%; in experiment [11] (KN510 200 μM) it was 44.41%; in experiment [12] (KN510 100 μM) it was 97.11%; in experiment [12] (KN510 200 μM) it was 54.29%. Moreover, the “cell growth (Control = 100)” value in experiment [13] (KN510 100 μM) came out at 84.15; in [14] (KN510 100 μM), 67.87.

In the case of `COc1ccc(CN2CCNCC2)c(OC)c1OC` [KN713, trimetazidine], in [1] (CAPAN-1, KN713 1 mM), the cell growth (% of control) at 1000 µM was 31.2%. Moreover, the inhibition at 1000 µM is -3.16% in experiment [2] (KN713 1 mM); -22.2% in experiment [3] (Capan-2, KN713 1 mM); 48.1% in [4] (KN713 1 mM); 30.2% in experiment [5] (MIA PaCa-2, KN713 1 mM); 12.3% in [6] (BX-PC3, KN713 1 mM). The “degree … (100%)” value in experiment [7] (KN713 2.5 mM) is 61.66% and 62.56%; in experiment [8] (KN713 2.5 mM) it was 88.97% and 65.95%; in experiment [9] (KN713 2.5 mM), 53.40% and 61.55%; in experiment [10] (KN713 2.5 mM), 36.83% and 32.97%; in [11] (KN713 2.5 mM) it was 78.16% and 58.31%; in experiment [12] (KN713 2.5 mM), −0.24% and 1.98%. The “cell growth (Control = 100)” value in experiment [13] (KN713 2.5 mM) is given as 66.40; in experiment [14] (KN713 2.5 mM), 59.89.

Source of the values: patent publication US12728119B2, “Pharmaceutical composition for preventing or treating cancer comprising 3-ketoacyl CoA thiolase inhibitor and carnitine acylcarnitine carrier inhibitor” (NATIONAL CANCER CENTER, priority 2020, dated 2026).
